# Data from patent publication US8574563B2 (Bristol-Myers Squibb Company, priority 2006, dated 2013).
# Test system: HCV 1b-377-neo replicon cells
# Assay: HCV replicon assay, HCV 1b-377-neo replicon cells (1b FRET)
# Assay type: cell-based, Hepatitis C virus genotype 1b
# Conditions: HCV 1b-377-neo replicon cells, HCV 1b genotype; for EC50: Hepatitis C virus, read-out: EC50 range against HCV 1b (Table 2, Range)
# How it was run: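 Compounds tested in HCV genotype 1b-377-neo replicon cells with a FRET read-out. Cells resistant to a reference NS5A inhibitor through a Y2065H NS5A mutation were run alongside wild-type cells.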
Compound,EC50,"EC50 range against HCV 1b (Table 2, Range)"
"CCN(CC)[C@H](C)C(=O)N1CCC[C@H]1c1ncc(-c2ccc(-c3ccc(-c4cnc([C@@H]5CCCN5C(=O)[C@H](C)NC(=O)OC)[nH]4)cc3)cc2)[nH]1 [Example M96, methyl ((1S)-2-((2S)-2-(5-(4′-(2-((2S)-1-(N,N-diethyl-D-alanyl)-2-pyrrolidinyl)-1H-imidazol-5-yl)-4-biphenylyl)-1H-imidazol-2-yl)-1-pyrrolidinyl)-1-methyl-2-oxoethyl)carbamate]",0.1 to 0.999 µM,–
"COC(=O)N[C@@H](C)C(=O)N1CCC[C@H]1c1ncc(-c2ccc(-c3ccc(-c4cnc([C@@H]5CCCN5C(=O)C(c5ccccc5)N5C6CCC5CC6)[nH]4)cc3)cc2)[nH]1 (stereo partly drawn) [Example M97, methyl ((1S)-2-((2S)-2-(5-(4′-(2-((2S)-1-(7-azabicyclo[2.2.1]hept-7-yl(phenyl)acetyl)-2-pyrrolidinyl)-1H-imidazol-5-yl)-4-biphenylyl)-1H-imidazol-2-yl)-1-pyrrolidinyl)-1-methyl-2-oxoethyl)carbamate]",0.001 to 0.099 µM,–
"COC(=O)N[C@@H](C)C(=O)N1CCC[C@H]1c1ncc(-c2ccc(-c3ccc(-c4cnc([C@@H]5CCCN5C(=O)[C@H](O)c5ccccc5)[nH]4)cc3)cc2)[nH]1 [Example M98, methyl ((1S)-2-((2S)-2-(5-(4′-(2-((2S)-1-((2R)-2-hydroxy-2-phenylacetyl)-2-pyrrolidinyl)-1H-imidazol-5-yl)-4-biphenylyl)-1H-imidazol-2-yl)-1-pyrrolidinyl)-1-methyl-2-oxoethyl)carbamate]",0.001 to 0.099 µM,–
"CCN(C)[C@@H](C(=O)N1CCC[C@H]1c1ncc(-c2ccc(-c3ccc(-c4cnc([C@@H]5CCCN5C(=O)[C@H](C)NC(=O)OC)[nH]4)cc3)cc2)[nH]1)c1ccccc1 [Example M99, methyl ((1S)-2-((2S)-2-(5-(4′-(2-((2S)-1-((2R)-2-(ethyl(methyl)amino)-2-phenylacetyl)-2-pyrrolidinyl)-1H-imidazol-5-yl)-4-biphenylyl)-1H-imidazol-2-yl)-1-pyrrolidinyl)-1-methyl-2-oxoethyl)carbamate]",0.001 to 0.099 µM,–
"COC[C@H](NC(=O)OC)C(=O)N1CCC[C@H]1c1ncc(-c2ccc(-c3ccc(-c4cnc([C@@H]5CCCN5C(=O)[C@H](C)NC(=O)OC)[nH]4)cc3)cc2)[nH]1 [Example M100, methyl ((1S)-2-((2S)-2-(5-(4′-(2-((2S)-1-(N-(methoxycarbonyl)-L-alanyl)-2-pyrrolidinyl)-1H-imidazol-5-yl)-4-biphenylyl)-1H-imidazol-2-yl)-1-pyrrolidinyl)-1-(methoxymethyl)-2-oxoethyl)carbamate]",0.001 to 0.099 µM,–
"CCN(CC)[C@@H](C(=O)N1CCC[C@H]1c1ncc(-c2ccc(-c3ccc(-c4cnc([C@@H]5CCCN5C(=O)[C@H](C)NC(=O)OC)[nH]4)cc3)cc2)[nH]1)C(C)C [Example M101, methyl ((1S)-2-((2S)-2-(5-(4′-(2-((2S)-1-(N,N-diethyl-D-valyl)-2-pyrrolidinyl)-1H-imidazol-5-yl)-4-biphenylyl)-1H-imidazol-2-yl)-1-pyrrolidinyl)-1-methyl-2-oxoethyl)carbamate]",0.1 to 0.999 µM,–
"CCCN(CCC)[C@H](C)C(=O)N1CCC[C@H]1c1ncc(-c2ccc(-c3ccc(-c4cnc([C@@H]5CCCN5C(=O)[C@H](C)NC(=O)OC)[nH]4)cc3)cc2)[nH]1 [Example M102, methyl ((1S)-2-((2S)-2-(5-(4′-(2-((2S)-1-(N,N-dipropyl-D-alanyl)-2-pyrrolidinyl)-1H-imidazol-5-yl)-4-biphenylyl)-1H-imidazol-2-yl)-1-pyrrolidinyl)-1-methyl-2-oxoethyl)carbamate]",0.001 to 0.099 µM,–
"CCCN(CCC)[C@@H](C)C(=O)N1CCC[C@H]1c1ncc(-c2ccc(-c3ccc(-c4cnc([C@@H]5CCCN5C(=O)[C@H](C)NC(=O)OC)[nH]4)cc3)cc2)[nH]1 [Example M103, methyl ((1S)-2-((2S)-2-(5-(4′-(2-((2S)-1-(N,N-dipropyl-L-alanyl)-2-pyrrolidinyl)-1H-imidazol-5-yl)-4-biphenylyl)-1H-imidazol-2-yl)-1-pyrrolidinyl)-1-methyl-2-oxoethyl)carbamate]",0.1 to 0.999 µM,–
"COC(=O)N[C@H](C(=O)N1CCC[C@H]1c1ncc(-c2ccc(-c3ccc(-c4cnc([C@@H]5CCCN5C(=O)[C@@H](N)C(C)(C)O)[nH]4)cc3)cc2)[nH]1)C(C)C [Example M104, methyl ((1S)-1-(((2S)-2-(5-(4′-(2-((2S)-1-(3-hydroxy-L-valyl)-2-pyrrolidinyl)-1H-imidazol-5-yl)-4-biphenylyl)-1H-imidazol-2-yl)-1-pyrrolidinyl)carbonyl)-2-methylpropyl)carbamate]",0.1 to 0.999 µM,–
COC(=O)N[C@H](C(=O)N1CCC[C@H]1c1ncc(-c2ccc(-c3ccc(-c4cnc([C@@H]5CCCN5C(=O)[C@@H](NC(=O)OC)C(C)(C)O)[nH]4)cc3)cc2)[nH]1)C(C)C [Example M105],0.001 to 0.099 µM,–
COC(=O)N[C@H](C(=O)N1CCC[C@H]1c1ncc(-c2ccc(-c3ccc(-c4cnc([C@@H]5CCCN5C(=O)[C@@H](NC(=O)OC)[C@@H](C)CO)[nH]4)cc3)cc2)[nH]1)C(C)C [Example M106],0.001 to 0.099 µM,–
COC(=O)N[C@H](C(=O)N1CCC[C@H]1c1ncc(-c2ccc(-c3ccc(-c4cnc([C@@H]5CCCN5C(=O)[C@@H](NC(=O)OC)[C@H](C)CO)[nH]4)cc3)cc2)[nH]1)C(C)C [Example M107],0.001 to 0.099 µM,–
"COC(=O)N[C@H](C(=O)N1CCC[C@H]1c1ncc(-c2ccc(-c3ccc(-c4cnc([C@@H]5CCCN5C(=O)[C@@H](N)C(C)C)[nH]4)cc3)cc2)[nH]1)C(C)C [Example M108, methyl ((1S)-2-methyl-1-(((2S)-2-(5-(4′-(2-((2S)-1-L-valyl-2-pyrrolidinyl)-1H-imidazol-5-yl)-4-biphenylyl)-1H-imidazol-2-yl)-1-pyrrolidinyl)carbonyl)propyl)carbamate]",0.001 to 0.099 µM,–
"COC(=O)N[C@@H](CC(=O)OCc1ccccc1)C(=O)N1CCC[C@H]1c1ncc(-c2ccc(-c3ccc(-c4cnc([C@@H]5CCCN5C(=O)[C@@H](NC(=O)OC)C(C)C)[nH]4)cc3)cc2)[nH]1 [Example M109, benzyl (3S)-3-((methoxycarbonyl)amino)-4-((2S)-2-(5-(4′-(2-((2S)-1-(N-(methoxycarbonyl)-L-valyl)-2-pyrrolidinyl)-1H-imidazol-5-yl)-4-biphenylyl)-1H-imidazol-2-yl)-1-pyrrolidinyl)-4-oxobutanoate]",0.001 to 0.099 µM,–
"COC(=O)C[C@H](NC(=O)OC)C(=O)N1CCC[C@H]1c1ncc(-c2ccc(-c3ccc(-c4cnc([C@@H]5CCCN5C(=O)[C@@H](NC(=O)OC)C(C)C)[nH]4)cc3)cc2)[nH]1 [Example M110, methyl (3S)-3-((methoxycarbonyl)amino)-4-((2S)-2-(5-(4′-(2-((2S)-1-(N-(methoxycarbonyl)-L-valyl)-2-pyrrolidinyl)-1H-imidazol-5-yl)-4-biphenylyl)-1H-imidazol-2-yl)-1-pyrrolidinyl)-4-oxobutanoate]",0.001 to 0.099 µM,–
"COC(=O)N[C@@H](CC(=O)O)C(=O)N1CCC[C@H]1c1ncc(-c2ccc(-c3ccc(-c4cnc([C@@H]5CCCN5C(=O)[C@@H](NC(=O)OC)C(C)C)[nH]4)cc3)cc2)[nH]1 [Example M111, (3S)-3-((methoxycarbonyl)amino)-4-((2S)-2-(5-(4′-(2-((2S)-1-(N-(methoxycarbonyl)-L-valyl)-2-pyrrolidinyl)-1H-imidazol-5-yl)-4-biphenylyl)-1H-imidazol-2-yl)-1-pyrrolidinyl)-4-oxobutanoic acid]",1 to 10 µM,–
"COC(=O)N[C@@H](CC(=O)N1CCN(C)CC1)C(=O)N1CCC[C@H]1c1ncc(-c2ccc(-c3ccc(-c4cnc([C@@H]5CCCN5C(=O)[C@@H](NC(=O)OC)C(C)C)[nH]4)cc3)cc2)[nH]1 [Example M112, methyl ((1S)-1-(((2S)-2-(5-(4′-(2-((2S)-1-((2S)-2-((methoxycarbonyl)amino)-4-(4-methyl-1-piperazinyl)-4-oxobutanoyl)-2-pyrrolidinyl)-1H-imidazol-5-yl)-4-biphenylyl)-1H-imidazol-2-yl)-1-pyrrolidinyl)carbonyl)-2-methylpropyl)carbamate]",0.001 to 0.099 µM,–
"COC(=O)N[C@@H](CC(=O)N(C)C)C(=O)N1CCC[C@H]1c1ncc(-c2ccc(-c3ccc(-c4cnc([C@@H]5CCCN5C(=O)[C@@H](NC(=O)OC)C(C)C)[nH]4)cc3)cc2)[nH]1 [Example M113, methyl ((1S)-3-(dimethylamino)-1-(((2S)-2-(5-(4′-(2-((2S)-1-((2S)-2-((methoxycarbonyl)amino)-3-methylbutanoyl)-2-pyrrolidinyl)-1H-imidazol-5-yl)-4-biphenylyl)-1H-imidazol-2-yl)-1-pyrrolidinyl)carbonyl)-3-oxopropyl)carbamate]",0.001 to 0.099 µM,–
"COC(=O)N[C@H](C(=O)N1CCC[C@H]1c1ncc(-c2ccc(-c3ccc(-c4cnc([C@@H]5CCCN5C(=O)[C@@H](NC(=O)OC)C(C)C)[nH]4)cc3C(=O)O)cc2)[nH]1)C(C)C [Example M114, 4,4′-bis(2-((2S)-1-(N-(methoxycarbonyl)-L-valyl)-2-pyrrolidinyl)-1H-imidazol-5-yl)-2-biphenylcarboxylic acid]",–,>A
"COC(=O)N[C@@H](C(=O)N1CCC[C@H]1c1ncc(-c2ccc(-c3ccc(-c4cnc([C@@H]5CCCN5C(=O)[C@H](NC(=O)OC)C5CC5)[nH]4)cc3C(=O)O)cc2)[nH]1)C1CC1 [Example M115, 4,4′-bis(2-((2S)-1-((2R)-2-cyclopropyl-2-((methoxycarbonyl)amino)acetyl)-2-pyrrolidinyl)-1H-imidazol-5-yl)-2-biphenylcarboxylic acid]",–,>A
"COC(=O)N[C@H](C(=O)N1CCC[C@H]1c1ncc(-c2ccc(-c3ccc(-c4cnc([C@@H]5CCCN5C(=O)[C@@H](NC(=O)OC)C5CC5)[nH]4)cc3C(=O)O)cc2)[nH]1)C1CC1 [Example M116, 4,4′-bis(2-((2S)-1-((2S)-2-cyclopropyl-2-((methoxycarbonyl)amino)acetyl)-2-pyrrolidinyl)-1H-imidazol-5-yl)-2-biphenylcarboxylic acid]",–,>A
